Reference: patent US20030157174A1, “Enteric granular preparations of hardly water soluble drugs characterized by containing water-repellent component” (priority 2002, published 2003)
Converted amounts (≈) assume the structure as drawn.

Test: Solubilities of Compound A to several test solutions
Format: physicochemical
Description: Compound A was used as an insoluble active ingredient in the following references and examples.

For `CC1(C)[C@H]2C[C@H](C/C=C\CCCC(=O)O)[C@@H](NC(=O)c3csc4ccc(O)cc34)[C@@H]1C2` [Compound A, (Z)-7-[(1R,2R,3S,5S)-2-(5-hydroxybenzo[b]thiophen-3-ylcarbonylamino)-10-norpinan-3-yl]-5-heptenoic acid], the “Final pH” value (test solution JP-1 Sol.) was 1.15, the “Final pH” value (test solution JP-2 Sol.) was 6.84 and the “Solubility 3 hours” value (test solution JP-2 Sol.) was 81.08 µg/mL (≈ 184 µM). The “Solubility 6 hours” value (test solution JP-2 Sol.) was 81.65 µg/mL (≈ 185 µM), the “Final pH” value (test solution Water) was 5.81 and the “Solubility 3 hours” value (test solution Water) was 5.56 µg/mL (≈ 12.6 µM). The “Solubility 6 hours” value (test solution Water) was 5.93 µg/mL (≈ 13.4 µM), the “Final pH” value (test solution pH4.0) was 4.07 and the “Final pH” value (test solution pH6.0) was 6.08. For the same compound, the “Solubility 3 hours” value (test solution pH6.0) was 15.19 µg/mL (≈ 34.4 µM), the “Solubility 6 hours” value (test solution pH6.0) was 15.57 µg/mL (≈ 35.3 µM) and the “Final pH” value (test solution pH7.8) was 7.6. The “Solubility 3 hours” value (test solution pH7.8) was 487.87 µg/mL (≈ 1100 µM), the “Solubility 6 hours” value (test solution pH7.8) was 489.05 µg/mL (≈ 1110 µM) and the “Final pH” value (test solution pH8.0) was 7.76. The “Solubility 3 hours” value (test solution pH8.0) was 652.56 µg/mL (≈ 1480 µM), the “Solubility 6 hours” value (test solution pH8.0) was 675.55 µg/mL (≈ 1530 µM) and the “Final pH” value (test solution pH8.5) was 8.29. For the same compound, the “Solubility 3 hours” value (test solution pH8.5) was 6197.64 µg/mL (≈ 14000 µM) and the “Solubility 6 hours” value (test solution pH8.5) was 6224.39 µg/mL (≈ 14100 µM).
